What was measured:
[1] = Example 2 urine odor panel ranking (1.6 millimolar); parameters: species or system Human; conditions: 1.6 millimolar in urine, after 24 hours
From the text: The powders chosen for this example were powders of Acid Blue 25, Acid Blue 45, Acid Blue 129, FD&C Blue No.1 (a triarylmethane), Acid Green 27, Acid Green 41, and Mordant Violet 5 (Alizarin Violet 3R) (commercially available from Sigma-Aldrich Chemical Co., Inc. of St. Louis, Mo.), as well as D&C Green No. 5 (commercially available from Noveon Hilton Davis, Inc. of Cincinnati, Ohio). Human female urine was initially collected and pooled by a nurse on staff at Kimberly-Clark Corporation. […] Powders of the aforementioned quinone compounds were weighed and placed into the mason jars containing 50 milliliters of urine so that the final concentration of the powder was 1.6 millimolar (equivalent to 0.1 wt. %). […] A score of “10” was assigned to the most malodorous jar and a score of “1” was assigned to the least malodorous jar.

[2] = Example 3 urine odor panel ranking; parameters: species or system Human; conditions: for Average Urine Odor Ranking (with statistical corrections), Avg. Score: ignoring statistical anomalies
Method: (§1) The effectiveness of various quinone compounds in reducing urine odor was compared. […] Human female urine was initially collected and pooled by a nurse on staff at Kimberly-Clark Corporation. The pooled urine was added to mason jars in 50-milliliter aliquots using an automated pipette aid. […] The mason jars were placed in an incubator overnight at 37° C.
(§2) In addition to ranking the jars from least to most malodorous (on a scale from 1 to 7, with 7 being the most malodors), panelists were also asked to judge whether there were secondary (non-urine) odors present and, if so, the extent that the secondary odors were unpleasant (on a scale from 1 to 5, with 5 being extremely unpleasant).
In this assessment, panelists were given instructions to rank the least malodorous jar as “1” and the most malodorous jar as “10,” remaining free to rank the other jars between 2-9.

[3] = Example 3 secondary (non-urine) odor ranking; parameters: species or system Human; conditions: individual panelist scores, scale 1 to 5, 5 extremely unpleasant
Method: as §1, §2

[4] = Redox potential (redox potentiometry); type: physicochemical
From the text: The ability of quinone compounds to accept electrons from another substance (i.e., be reduced) may be quantified using a technique known as redox potentiometry. Redox potentiometry is a technique that measures (in volts) the affinity of a substance for electrons—its electronegativity—compared with hydrogen (which is set at 0). Substances more strongly electronegative than (i.e., capable of oxidizing) hydrogen have positive redox potentials. Substances less electronegative than (i.e., capable of reducing) hydrogen have negative redox potentials. The greater the difference between the redox potentials of two substances (ΔE), the greater the vigor with which electrons will flow spontaneously from the less positive to the more positive (more electronegative) substance. As is well known in the art, redox potential may be measured using any of a variety of commercially available meters, such as an Oxidation Reduction Potential (ORP) tester commercially available from Hanna Instruments, Inc. of Woonsocket, R. I. The redox potential of the quinone compounds may, for instance, be less than about −50 millivolts (mV), in some embodiments less than about −150 mV, in some embodiments less than about −300 mV, and in some embodiments, less than about −500 mV. Although not always the case, the redox potential may vary based on the number and location of functional groups, such as sulfonic acid, on the quinone structure. For example, 2-sulfonic acid anthraquinone has a redox potential of −380 mV; 2,6-disulfonic acid anthraquinone has a redox potential of −325 mV; and 2,7-disulfonic acid anthraquinone has a redox potential of −313 mV. Likewise, 2-sulfonic acid naphthaquinone has a redox potential of −60 mV. The use of other functional groups may also have an affect on the ultimate redox potential of the compound. For example, Acid Blue 25, which also contains amino- and aramid functional groups, has a redox potential of −605 mV.

[5] = Example 7 urine odor panel ranking (16 millimolar); parameters: species or system Human; conditions: 16 millimolar in urine, 1 least, 10 most urine malodor
Method: The effectiveness of various quinone compounds in reducing urine odor was compared. […] Human female urine was initially collected and pooled at Kimberly-Clark Corporation. The pooled urine was added to mason jars in 50-milliliter aliquots using an automated pipette aid. Powders of the aforementioned quinone compounds (commercially available from Sigma-Aldrich Chemical Co., Inc. of St. Louis, Missouri and Noveon Hilton Davis, Inc. of Cincinnati, Ohio) were weighed and placed into the mason jars containing 50 milliliters of urine so that the final concentration of the powder was 16 millimolar (equivalent to 1 wt. %). The mason jars were placed in an incubator overnight at 37° C. The experimental setup is set forth in more detail below in Table 21.
Jars were wrapped in foil and placed in an incubator at 37° C. overnight. The jars were divided into four groups (C-F), each sharing the same control jar of urine alone (no powder). Assessments were conducted the following day by asking panelists to rate each jar from 1 (least urine malodor) to 10 (most urine malodor).

[6] = Solubility of powder in urine
[7] = Example 1 urine odor panel ranking; parameters: species or system Human; conditions: 8 millimolar in urine; for Avg. Ranking (odor) / Ranking 4 (number of panelists) / Ranking 5 (number of panelists) / Ranking 1 (number of panelists) / Ranking 3 (number of panelists) / Ranking 7 (number of panelists): 1 least, 10 most malodorous
From the text: Human female urine was initially collected and pooled by a nurse on staff at Kimberly-Clark Corporation. […] Powders of Acid Blue 129 and Acid Green 27 (commercially available from Sigma-Aldrich Chemical Co., Inc. of St. Louis, Mo.), as well as D&C Green No. 5 (commercially available from Noveon Hilton Davis, Inc. of Cincinnati, Ohio), were then weighed and placed into the mason jars containing 50 milliliters of urine so that the final concentration of the powder was 8 millimolar (equivalent to 0.5 wt. %). […] A score of “10” was assigned to the most malodorous jar and a score of “1” was assigned to the least malodorous jar.

[8] = Example 5 urine odor panel ranking; parameters: species or system Human
Method: Assessments were conducted the following day by asking panelists to rate each jar from 1 (least urine malodor) to 8 (most urine malodor). The results are set forth below in Tables 15-18.

[9] = Example 6 urine odor panel ranking; parameters: species or system Human; conditions: as Example 5, 1 least, 8 most urine malodor
From the text: The quinone compounds chosen for this example were Alizarin Blue Black B, Remazol Brilliant Blue R and Acid Green 25. The results are set forth below in Tables 19 and 20.

[10] = Example 3 first grouping, 8 millimolar in urine, scale 1 to 7, 7 most malodorous
[11] = Example 3 top performers of both groupings, after 24 hours, 1 least, 10 most malodorous
[12] = Example 3 top performers, after 24 hours, 1 least, 10 most malodorous
[13] = Example 3 top performers, after 24 hours
[14] = Example 7, 16 mM in 50 milliliters of urine
[15] = Example 3 second grouping, 8 millimolar in urine, 1 least malodorous
[16] = Example 5 Group A, 8 mM in urine, 1 least, 8 most urine malodor
[17] = Example 5, 8 mM in 50 milliliters of urine
[18] = Example 5 Group B, 8 mM in urine, 1 least, 8 most urine malodor

## Cc1ccc(Nc2cccc3c2C(=O)c2cccc(Nc4ccc(C)cc4S(=O)(=O)[O-])c2C3=O)c(S(=O)(=O)[O-])c1.[Na+].[Na+]
[1]
  reducing odor (in words): did not perform as well in reducing odor as D&C Green No. 5
[2]; [10]
  Average Urine Odor Ranking, Avg. Score: 5.8
  Urine Odor Ranking 4 (number of panelists): 1
  Urine Odor Ranking 6 (number of panelists): 3
  Urine Odor Ranking 7 (number of panelists): 1
[3]; Example 3 first grouping
  Secondary Odor Ranking: 1

## O=C1c2ccc(S(=O)(=O)O)cc2C(=O)c2ccc(S(=O)(=O)O)cc21 [2,6-disulfonic acid anthraquinone]
[4]
  redox potential: −325 mV

## O=C1c2ccc(S(=O)(=O)O)cc2C(=O)c2cc(S(=O)(=O)O)ccc21 [2,7-disulfonic acid anthraquinone]
[4]
  redox potential: −313 mV

## O=C1c2ccccc2C(=O)c2cc(S(=O)(=O)O)ccc21 [2-sulfonic acid anthraquinone]
[4]
  redox potential: −380 mV

## O=C1C=C(S(=O)(=O)O)C(=O)c2ccccc21 [2-sulfonic acid naphthaquinone]
[4]
  redox potential: −60 mV

## Nc1c(S(=O)(=O)[O-])cc(Nc2ccccc2)c2c1C(=O)c1ccccc1C2=O.[Na+] [Acid Blue 25]
[4]
  redox potential: −605 mV
[2]; Example 3 first grouping
  urine odor reduction (in words): functioned effectively to reduce odor
[2]; [10]
  Average Urine Odor Ranking, Avg. Score: 3.0
  Urine Odor Ranking 1 (number of panelists): 1
  Urine Odor Ranking 2 (number of panelists): 1
  Urine Odor Ranking 3 (number of panelists): 1
  Urine Odor Ranking 4 (number of panelists): 1
  Urine Odor Ranking 5 (number of panelists): 1
[2]; [11]
  Urine Odor Ranking 4 (number of panelists): 1
  Urine Odor Ranking 7 (number of panelists): 1
  Urine Odor Ranking 9 (number of panelists): 2
  Urine Odor Ranking 10 (number of panelists): 1
[2]; [12]
  Average Urine Odor Ranking, Avg. Score: 6.8
[2]; [13]
  Average Urine Odor Ranking (with statistical corrections), Avg. Score: 8.8
[3]; Example 3 first grouping
  Secondary Odor Ranking: 2
[3]; [13]
  Secondary Odor Ranking: 4
[5]; Example 7 Group C
  Average Rankings (Group C), Avg. Score: 2.4
  Urine Odor Ranking 1 (number of panelists): 3
  Urine Odor Ranking 4 (number of panelists): 1
  Urine Odor Ranking 5 (number of panelists): 1
[6]; [14]
  Soluble?: Mostly

## CCCCc1ccc(Nc2ccc(Nc3ccc(CCCC)cc3S(=O)(=O)[O-])c3c2C(=O)c2ccccc2C3=O)c(S(=O)(=O)[O-])c1.[Na+].[Na+] [Acid Green 27]
[7]
  reducing urine malodor (in words): functioned effectively in reducing urine malodor
[7]; after 6 hours
  Avg. Ranking (odor): 4.4
  Ranking 4 (number of panelists): 3
  Ranking 5 (number of panelists): 2
[7]; after 24 hours
  Avg. Ranking (odor): 4.5
  Ranking 1 (number of panelists): 1
  Ranking 3 (number of panelists): 2
  Ranking 7 (number of panelists): 3
[2]; [15]
  Average Urine Odor Ranking, Avg. Score: 3.6
  Urine Odor Ranking 2 (number of panelists): 2
  Urine Odor Ranking 4 (number of panelists): 1
  Urine Odor Ranking 5 (number of panelists): 2
[2]; [11]
  Urine Odor Ranking 2 (number of panelists): 1
  Urine Odor Ranking 8 (number of panelists): 2
  Urine Odor Ranking 9 (number of panelists): 1
  Urine Odor Ranking 10 (number of panelists): 1
[2]; [12]
  Average Urine Odor Ranking, Avg. Score: 6.4
[2]; [13]
  Average Urine Odor Ranking (with statistical corrections), Avg. Score: 8.8
[3]; Example 3 second grouping
  Secondary Odor Ranking: 2
[3]; [13]
  Secondary Odor Ranking: 4
[8]; [16]
  Average Rankings (Group A), Avg. Score: 4.25
  Urine Odor Ranking 3 (number of panelists): 1
  Urine Odor Ranking 4 (number of panelists): 2
  Urine Odor Ranking 6 (number of panelists): 1
[5]; Example 7 Group E
  Average Rankings (Group E), Avg. Score: 6.2
  Urine Odor Ranking 1 (number of panelists): 1
  Urine Odor Ranking 5 (number of panelists): 1
  Urine Odor Ranking 7 (number of panelists): 1
  Urine Odor Ranking 8 (number of panelists): 1
  Urine Odor Ranking 10 (number of panelists): 1
[6]; [17]
  Soluble?: Mostly
[6]; [14]
  Soluble?: Mostly

## Cc1ccc(Nc2ccc(Nc3ccc(C)cc3S(=O)(=O)[O-])c3c2C(=O)c2ccccc2C3=O)c(S(=O)(=O)[O-])c1.[Na+].[Na+] [D&C Green No. 5]
[7]
  reducing urine malodor (in words): functioned effectively in reducing urine malodor
[7]; after 6 hours
  Avg. Ranking (odor): 3.0
  Ranking 1 (number of panelists): 1
  Ranking 3 (number of panelists): 3
  Ranking 5 (number of panelists): 1
[7]; after 24 hours
  Avg. Ranking (odor): 5.2
  Ranking 4 (number of panelists): 3
  Ranking 5 (number of panelists): 1
  Ranking 7 (number of panelists): 2
[2]; Example 3 second grouping
  urine odor reduction (in words): did not perform as well compared to the other quinone compounds
[2]; [15]
  Urine Odor Ranking 4 (number of panelists): 3
  Urine Odor Ranking 5 (number of panelists): 2
[2]; [11]
  Urine Odor Ranking 2 (number of panelists): 1
  Urine Odor Ranking 4 (number of panelists): 1
  Urine Odor Ranking 7 (number of panelists): 2
  Urine Odor Ranking 10 (number of panelists): 1
[2]; [12]
  Average Urine Odor Ranking, Avg. Score: 6.0
[2]; [13]
  Average Urine Odor Ranking (with statistical corrections), Avg. Score: 7.0
[3]; Example 3 second grouping
  Secondary Odor Ranking: 4
[3]; [13]
  Secondary Odor Ranking: 4
[8]; Example 5 Group B
  odor reduction performance (in words): performed well
[8]; [18]
  Average Rankings (Group B), Avg. Score: 4.25
  Urine Odor Ranking 2 (number of panelists): 1
  Urine Odor Ranking 3 (number of panelists): 1
  Urine Odor Ranking 5 (number of panelists): 1
  Urine Odor Ranking 7 (number of panelists): 1
[9]
  Average Rankings, Avg. Score: 6.25
  Urine Odor Ranking 5 (number of panelists): 2
  Urine Odor Ranking 7 (number of panelists): 1
  Urine Odor Ranking 8 (number of panelists): 1
[5]; Example 7 Group D
  Average Rankings (Group D), Avg. Score: 7
  Urine Odor Ranking 5 (number of panelists): 2
  Urine Odor Ranking 7 (number of panelists): 1
  Urine Odor Ranking 9 (number of panelists): 2
[6]; [17]
  Soluble?: Yes
[6]; [14]
  Soluble?: Yes

— patent US20070048247A1, “Deodorizing tablets” (Kimberly-Clark Worldwide, Inc., priority 2005, published 2007)
